The source of these data is US9233912B2, “Devices and methods for crystallization” (Massachusetts Institute of Technology, priority 2013, dated 2016).

The conditions of series [1]: w/w = g chemical/g solution; cited from earlier work.
The procedure of series [2]: (§1) To perform the analysis, a drop of solution or 1 mg of crystals dispersed in a few drops of mineral oil was first imaged using a 5× objective.
Series [3] is described as follows: Integrated nucleator-crystallizer (Coflore crystallizer) experiment, crystal size. The conditions noted are these: for d0.1 / d0.5 / d0.9: Integrated nucleator crystallization.
For series [4] the following is noted: Seeded Crystallization. As for the experimental part: as §1
A continuous crystallization process with seeding was evaluated for comparison with an integrated nucleator-crystallizer device. A schematic diagram of the seeded crystallization experiment is depicted in FIG. 13. Seed crystals (nuclei) were obtained from antisolvent crystallization of glycine (to generate small crystals). Crystals obtained from antisolvent crystallization were sieved through a series of sieves with openings of 90, 63, and 45 μm. Seeds were collected from the 45 μm sieve.
For the seeded crystallization experiment, the crystallizer was first filled with the feed solution. Once filled, the process was seeded by pumping (50 mL/min) a suspension of 0.05 g seed in 25 mL feed solution into the crystallizer. After seeding, the crystallization process proceeded with continuous input of clear feed solution at 50 mL/min. Glycine crystals were collected by vacuum filtration at the crystallizer outlet. Except for the seeding procedure, the other experimental conditions for the seeded crystallization experiment were kept identical to the integrated nucleator-crystallizer experiment of Example 4.
Feed solution concentration: 24% (20% above saturation)
Residence time in crystallizer (100 mL): 2 min
Crystallizer holding temperature: 28° C.
The data were analyzed with crystals collected between 4-5 residence times (RT) when the device was at steady state.
To investigate the feasibility of the seeded experiment, a second experiment was conducted at lower crystallizer temperature (higher supersaturation that could potentially improve crystal growth rate).

Series [5] can be described thus: Integrated nucleator-tubular crystallizer experiment, crystal size by microscopic analysis. Format: physicochemical. As for the experimental part:
as §1
These experiments involved connecting the generator to a tubular crystallizer for crystal growth. This integrated nucleator-crystallizer experiment was conducted with a 49 mL tubular coiled crystallizer (Masterflex® L/S®, Chem-Durance® Bio tubing, ID=3.2 mm, Length=20 ft) using 1.54% acetaminophen solution. During the experiment, relatively small crystals generated in the nucleator were pumped into the tubular crystallizer at the same flow rate as the nuclei generator. The small crystals then grew in the crystallizer for a fixed residence time before the crystals were collected by vacuum filtration, as shown in FIG. 2. Two experiments at flow rates of 14.2 and 11.3 mL/min were conducted. The particle size distributions of the crystals were determined by microscopic analysis (Nikon Eclipse ME600).
The nuclei generator can be integrated into crystallization processes in which the production of crystals of specific size distribution is desired (See, e.g., FIGS. 1B, 1C, 2, 12). In some embodiments, with the continuous generation of nuclei, the nucleation and growth events were decoupled. In this case, nucleation was triggered in the nucleator, while growth continued in the crystallizer. Multiple integrated nucleator—tubular crystallizer experiments were conducted that illustrate this process.

The nature of series [6]: Nucleator only experiments, in-line FBRM chord length distribution. Format: physicochemical. The conditions noted are these: FBRM at nucleator outlet, residence time 7.4 s and 10.3 s. An excerpt:
In some embodiments, Focused Beam Reflectance Measurement (FBRM) or similar technique may be used to obtain characteristic size information. FBRM, in some embodiments, provides an ability to measure objects (e.g., crystals) in suspensions, e.g., at full process concentration, without the need for sample extraction and sample preparation. In some embodiments, FBRM method of measurement may be used which is based on a measurement of Chord Length Distribution that simultaneously tracks the rate and degree of change in particle count and mean chord length. As used herein, the term “chord length” refers to the length of a line segment passing across a portion of a projection of an object on a two-dimensional plane, and whose end points lie on the edge of the projection. The term “mean chord length” refers to the mean length of multiple chords, e.g., multiple randomly orientated chords. Methods for measuring mean particle count and mean chord length are well known in the art. See, […]. Particle Size Measurements: Fundamentals, Practice, Quality. […] Copyright 2009 Springer Science+Business Media B.V., and references cited therein.

Read-outs that look alike come from different tables or passages of the source.

For `NCC(=O)O` [Glycine, glycine], the “Saturation concentration at 25° C. (Cs)” value in series [1] is listed as 20^15 % w/w. The “size below which 90% of the nuclei lie” value in series [2] (21% glycine solution, 30 s residence time, nucleator only) is “less than 12.28 μm”. Further, in series [2] (21% glycine solution, three residence times), the “coefficient of variation (CV) of nuclei size” value is on record as approximately 1. Further, in series [2] (21% glycine solution, three residence times (30 s, 2 min, 3.5 min)), the “size of nuclei obtained (mostly)” value is on record as “less than 20 μm”. For the same compound, the “mean size of small crystals generated with the nucleator” value in series [2] (glycine experiments, nucleator device) is listed as “up to 14 μm”. The “average size of nuclei upon leaving the nucleator” value in series [3] (24% solution, 50 mL/min, approx. 10 s in nucleator) is reported as 14 μm. Moreover, the “average size of crystals from Coflore crystallizer” value in series [3] (24% solution, 50 mL/min, approx. 2 minutes in crystallizer, 28° C.) was 48 μm. For the same compound, the d0.1 in series [3] (Coflore) is listed as 13.9 μm; in series [3] (Nucleator) it was 2.4 μm; in series [4] (Run 1 (Tcryst = 28° C.)), 6.3 μm; in series [4] (Run 2 (Tcryst = 25° C.)) it was 7.4 μm; in series [4] (Seed) it was 2.4 μm. The d0.5 was 34.1 μm in series [3] (Coflore); 8.8 μm in series [3] (Nucleator); 14.6 μm in series [4] (Run 1 (Tcryst = 28° C.)); 28.8 μm in series [4] (Run 2 (Tcryst = 25° C.)); 10.3 μm in series [4] (Seed). The d0.9 in series [3] (Coflore) was determined as 91.9 μm; in series [3] (Nucleator) it was 27.2 μm; in series [4] (Run 1 (Tcryst = 28° C.)), 44.6 μm; in series [4] (Run 2 (Tcryst = 25° C.)), 90.3 μm; in series [4] (Seed), 50.8 μm.

For the compound `CC(=O)Nc1ccc(O)cc1` [Acetaminophen, acetaminophen], the “Saturation concentration at 25° C. (Cs)” value in series [1] is listed as 1.48^16 % w/w. Besides, in series [5] (flow rate 11.31 mL/min), the “average growth rate inside the nucleator” value was 1.47×10^−7 m/s and the “mean size of crystals leaving the nucleator” value is reported as 6.7 μm. Also, the “mean size of crystals after tubular crystallizer” value in series [5] (flow rate 11.31 mL/min, after 4.3 min in the tubular crystallizer) is listed as 13.5 μm. In series [5] (flow rate 11.31 mL/min, tubular crystallizer), the “average growth rate inside the crystallizer” value is 2.62×10^−7 m/s. For the same compound, the “mean size of small crystals produced” value in series [5] (integrated nucleator and tubular crystallizer, FIG. 9) was 12 μm. Also, the “span (D (0.9)-D (0.1)) of chord length distribution” value in series [6] was “≈ 20 μm”.
